From US20250114460A1, “NOVEL PLK1 DEGRADATION INDUCING COMPOUND” (UPPTHERA, INC., priority 2021, published 2025) come the findings set out here.

The term IC50 denotes the concentration that inhibits the measured activity by half. A low value points to inhibition by little substance.

One experiment concerns the target T1, PLK1 (Homo sapiens, UniProt P53350).
T1 construct: endogenous in cells; host or cells: HeLa LgBit (Plk1-HiBit KI): HeLa stably expressing LgBit, with a CRISPR/Cas9 knock-in of HiBit at the endogenous PLK1 locus
In words: Luciferase assay for PLK1 in HeLa LgBit (Plk1-HiBit KI) cell line. It is filed as cell-based. As to conditions: 300 nM compound, luminescence after 9 hours. The method in brief: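 Luminescence, followed in real time after adding compound at 300 nM and Endurazine substrate, is reported relative to DMSO-treated wells. Cells are a HeLa LgBit line with a Plk1-HiBit knock-in, synchronized by 2 mM thymidine for 24 h, released, and cultured 18 h before treatment.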
For orientation: The HiBiT peptide binds its large partner to form an active luciferase.

A further experiment has as its system NCI-H526 cell line. Description: Cell viability assay for H526 cell (EZ-Cytox). It is filed as cell-based. As to conditions: Homo sapiens, NCI-H526, 120 h; H526 cells, 5 days, 3000 nM to 0.46 nM. The method, then:
(1) Culture of NCI-H526 Cell Line
(2) Treatment of Compounds of the Present Invention and Method of Cell Viability Assay
After treating the compound to each well to make the total volume of 200 μL, it was cultured in a CO2 incubator (Thermo Fisher Science, Cat. No. 4111) for 5 days.
The absorbance of the completely cultured sample was measured by setting the wavelength of a plate reader (BMG Labtech, CLARIOstar Plus) to […], and was measured after shaking for 3 minutes in a plate reader before measurement.
In Table 3, Activity represents IC50 value of each Exemplary Compound treatment group to H526 cell line (A: <30 nM, B: <50 nM, C: <100 nM, D: <200 nM, E: <400 nM).

T1 sequence (P53350 whole entry): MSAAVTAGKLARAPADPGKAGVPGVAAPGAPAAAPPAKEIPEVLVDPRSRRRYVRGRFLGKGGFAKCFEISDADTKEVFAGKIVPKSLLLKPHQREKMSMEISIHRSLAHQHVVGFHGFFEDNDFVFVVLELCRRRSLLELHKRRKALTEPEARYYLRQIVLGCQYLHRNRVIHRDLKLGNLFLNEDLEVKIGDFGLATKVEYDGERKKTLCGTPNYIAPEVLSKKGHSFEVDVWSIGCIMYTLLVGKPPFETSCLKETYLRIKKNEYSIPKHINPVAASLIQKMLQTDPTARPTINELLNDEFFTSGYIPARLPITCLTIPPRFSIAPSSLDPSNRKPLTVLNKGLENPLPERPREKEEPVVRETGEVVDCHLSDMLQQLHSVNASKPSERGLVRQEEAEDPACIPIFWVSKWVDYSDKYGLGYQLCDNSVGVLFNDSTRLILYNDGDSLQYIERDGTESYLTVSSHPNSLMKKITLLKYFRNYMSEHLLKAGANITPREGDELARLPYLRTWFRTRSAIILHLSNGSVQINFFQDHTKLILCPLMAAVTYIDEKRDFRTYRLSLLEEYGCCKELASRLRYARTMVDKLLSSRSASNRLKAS

For `COc1cc(C(=O)NC2CCN(CCOc3cccc4c3C(=O)N(C3CCC(=O)NC3=O)C4=O)CC2)c(F)cc1Nc1ncc2c(n1)N(C1CCCC1)CC(F)(F)C(=O)N2C` (stereo not drawn) [Compound 2, 4-((9-cyclopentyl-7,7-difluoro-5-methyl-6-oxo-6,7,8,9-tetrahydro-5H-pyrimido[4,5-b][1,4]diazepin-2-yl)amino)-N-(1-(2-((2-(2,6-dioxopiperidin-3-yl)-1,3-dioxoisoindolin-4-yl)oxy)ethyl)piperidin-4-yl)-2-fluoro-5-methoxybenzamide], the “Activity: ratio of the luminescense value of each Exemplary Compound treatment group to DMSO treatment group” value (from here on “Activity: ratio”) on PLK1 is “++ (++<0.6)”. In the experiment with NCI-H526 cell line, this compound displayed an IC50 of less than 0.2 µM.
Turning to `COc1cc(C(=O)NC2CCN(CCOc3cccc4c3C(=O)N(C3CCC(=O)NC3=O)C4=O)CC2)c(Cl)cc1Nc1ncc2c(n1)N(C1CCCC1)CC(F)(F)C(=O)N2C` (stereo not drawn) [Compound 6, 2-chloro-4-((9-cyclopentyl-7,7-difluoro-5-methyl-6-oxo-6,7,8,9-tetrahydro-5H-pyrimido[4,5-b][1,4]diazepin-2-yl)amino)-N-(1-(2-((2-(2,6-dioxopiperidin-3-yl)-1,3-dioxoisoindolin-4-yl)oxy)ethyl)piperidin-4-yl)-5-methoxybenzamide], the “Activity: ratio” value on PLK1 is “+++ (+++: <0.3)”. In the experiment with NCI-H526 cell line, this compound gave a half-inhibitory concentration (IC50) of less than 0.4 µM.
On to `COc1cc(C(=O)NCCCOCCCOCCOc2cccc3c2CN(C2CCC(=O)NC2=O)C3=O)ccc1Nc1ncc2c(n1)N(C1CCCC1)CC(F)(F)C(=O)N2C` (stereo not drawn) [Compound 20, 4-((9-cyclopentyl-7,7-difluoro-5-methyl-6-oxo-6,7,8,9-tetrahydro-5H-pyrimido[4,5-b][1,4]diazepin-2-yl)amino)-N-(3-(3-(2-((2-(2,6-dioxopiperidin-3-yl)-1-oxoisoindolin-4-yl)oxy)ethoxy)propoxy)propyl)-3-methoxybenzamide], for which the “Activity: ratio” value on PLK1 was “++ (++<0.6)”. The IC50 in the experiment with NCI-H526 cell line was less than 0.2 µM.
`COc1cc(C(=O)NN2CCN(C(=O)CCCNc3cccc4c3C(=O)N(C3CCC(=O)NC3=O)C4=O)CC2)c(F)cc1Nc1ncc2c(n1)N(C1CCCC1)CC(F)(F)C(=O)N2C` (stereo not drawn) [Compound 29, 4-((9-cyclopentyl-7,7-difluoro-5-methyl-6-oxo-6,7,8,9-tetrahydro-5H-pyrimido[4,5-b][1,4]diazepin-2-yl)amino)-N-(4-(4-((2-(2,6-dioxopiperidin-3-yl)-1,3-dioxoisoindolin-4-yl)amino)butanoyl)piperazin-1-yl)-2-fluoro-5-methoxybenzamide]: the “Activity: ratio” value on PLK1 is on record as “++ (++<0.6)”. In the experiment on NCI-H526 cell line, this compound yielded a concentration for half-maximal inhibition (IC50) of less than 0.03 µM.
Consider `COc1cc(C(=O)NC2CCN(C(=O)CCCNc3cccc4c3C(=O)N(C3CCC(=O)NC3=O)C4=O)CC2)c(F)cc1Nc1ncc2c(n1)N(C(C)C)CC(F)(F)C(=O)N2C` (stereo not drawn) [Compound 33, 4-((7,7-difluoro-9-isopropyl-5-methyl-6-oxo-6,7,8,9-tetrahydro-5H-pyrimido[4,5-b][1,4]diazepin-2-yl)amino)-N-(1-(4-((2-(2,6-dioxopiperidin-3-yl)-1,3-dioxoisoindolin-4-yl)amino)butanoyl)piperidin-4-yl)-2-fluoro-5-methoxybenzamide], for which, on PLK1, the “Activity: ratio” value is listed as “++ (++<0.6)”. In the experiment on NCI-H526 cell line, this compound gave an IC50 of less than 0.2 µM.
On to `COc1cc(C(=O)NC2CCN(C(=O)COc3cccc4c3C(=O)N(C3CCC(=O)NC3=O)C4=O)CC2)c(F)cc1Nc1ncc2c(n1)N(C1CCCC1)CC(F)(F)C(=O)N2C` (stereo not drawn) [Compound 37, 4-((9-cyclopentyl-7,7-difluoro-5-methyl-6-oxo-6,7,8,9-tetrahydro-5H-pyrimido[4,5-b][1,4]diazepin-2-yl)amino)-N-(1-(2-((2-(2,6-dioxopiperidin-3-yl)-1,3-dioxoisoindolin-4-yl)oxy)acetyl)piperidin-4-yl)-2-fluoro-5-methoxybenzamide], for which the “Activity: ratio” value on PLK1 is “++ (++<0.6)”. The half-maximal inhibitory concentration (IC50) with NCI-H526 cell line was less than 0.4 µM.
The corresponding values for `COc1cc(C(=O)NC2CCN(C(=O)CCCSc3cccc4c3C(=O)N(C3CCC(=O)NC3=O)C4=O)CC2)c(F)cc1Nc1ncc2c(n1)N(C1CCCC1)CC(F)(F)C(=O)N2C` (stereo not drawn) [Compound 42, 4-((9-cyclopentyl-7,7-difluoro-5-methyl-6-oxo-6,7,8,9-tetrahydro-5H-pyrimido[4,5-b][1,4]diazepin-2-yl)amino)-N-(1-(4-((2-(2,6-dioxopiperidin-3-yl)-1,3-dioxoisoindolin-4-yl)thio)butanoyl)piperidin-4-yl)-2-fluoro-5-methoxybenzamide] are “++ (++<0.6)” and less than 0.1 µM.
Turning to `COc1cc(C(=O)NN2CCN(C3CCN(c4cccc5c4C(=O)N(C4CCC(=O)NC4=O)C5=O)C3)CC2)ccc1Nc1ncc2c(n1)N(C(C)C)CC(F)(F)C(=O)N2C` (stereo not drawn) [Compound 52, 4-((7,7-difluoro-9-isopropyl-5-methyl-6-oxo-6,7,8,9-tetrahydro-5H-pyrimido[4,5-b][1,4]diazepin-2-yl)amino)-N-(4-(1-(2-(2,6-dioxopiperidin-3-yl)-1,3-dioxoisoindolin-4-yl)pyrrolidin-3-yl)piperazin-1-yl)-3-methoxybenzamide], the “Activity: ratio” value at PLK1 is given as “++ (++<0.6)”. In the experiment with NCI-H526 cell line, this compound gave a 50% inhibitory concentration (IC50) of less than 0.03 µM.
Regarding `COc1cc(C(=O)NCC2CCN(CC3CCN(c4cccc5c4C(=O)N(C4CCC(=O)NC4=O)C5=O)CC3)CC2)ccc1Nc1ncc2c(n1)N(C1CCCC1)CC(F)(F)C(=O)N2C` (stereo not drawn) [Compound 53, 4-((9-cyclopentyl-7,7-difluoro-5-methyl-6-oxo-6,7,8,9-tetrahydro-5H-pyrimido[4,5-b][1,4]diazepin-2-yl)amino)-N-((1-((1-(2-(2,6-dioxopiperidin-3-yl)-1,3-dioxoisoindolin-4-yl)piperidin-4-yl)methyl)piperidin-4-yl)methyl)-3-methoxybenzamide], the “Activity: ratio” value at PLK1 is listed as “+++ (+++: <0.3)”. The compound further returned an IC50 with NCI-H526 cell line of less than 0.05 µM.
In the same order, the values of `COc1cc(C(=O)N2CCN(CCN3CCN(c4cccc5c4C(=O)N(C4CCC(=O)NC4=O)C5=O)CC3)CC2)ccc1Nc1ncc2c(n1)N(C1CCCC1)CC(F)(F)C(=O)N2C` (stereo not drawn) [Compound 86, 4-(4-(2-(4-(4-((9-cyclopentyl-7,7-difluoro-5-methyl-6-oxo-6,7,8,9-tetrahydro-5H-pyrimido[4,5-b][1,4]diazepin-2-yl)amino)-3-methoxybenzoyl)piperazin-1-yl)ethyl)piperazin-1-yl)-2-(2,6-dioxopiperidin-3-yl)isoindoline-1,3-dione] are “++ (++<0.6)” and less than 0.4 µM.
Turning to `COc1cc(C(=O)NCCOCCOCCNc2cccc3c2C(=O)N(C2CCC(=O)NC2=O)C3=O)c(N2CCN(C)CC2)cc1Nc1ncc2c(n1)N(C1CCCC1)CC(F)(F)C(=O)N2C` (stereo not drawn) [Compound 222, 4-((9-cyclopentyl-7,7-difluoro-5-methyl-6-oxo-6,7,8,9-tetrahydro-5H-pyrimido[4,5-b][1,4]diazepin-2-yl)amino)-N-(2-(2-(2-((2-(2,6-dioxopiperidin-3-yl)-1,3-dioxoisoindolin-4-yl)amino)ethoxy)ethoxy)ethyl)-5-methoxy-2-(4-methylpiperazin-1-yl)benzamide], the “Activity: ratio” value at PLK1 was “++ (++<0.6)”.
With `COc1cc(C(=O)NCCOCCOCCOCCNc2cccc3c2C(=O)N(C2CCC(=O)NC2=O)C3=O)c(N2CCN(C)CC2)cc1Nc1ncc2c(n1)N(C1CCCC1)CC(F)(F)C(=O)N2C` (stereo not drawn) [Compound 223, 4-((9-cyclopentyl-7,7-difluoro-5-methyl-6-oxo-6,7,8,9-tetrahydro-5H-pyrimido[4,5-b][1,4]diazepin-2-yl)amino)-N-(2-(2-(2-(2-((2-(2,6-dioxopiperidin-3-yl)-1,3-dioxoisoindolin-4-yl)amino)ethoxy)ethoxy)ethoxy)ethyl)-5-methoxy-2-(4-methylpiperazin-1-yl)benzamide], at PLK1, the “Activity: ratio” value is on record as “++ (++<0.6)”.
The same measure, in the same setting: in the case of `COc1cc(C(=O)NCCOCCOCCOCCOCCNc2cccc3c2C(=O)N(C2CCC(=O)NC2=O)C3=O)c(N2CCN(C)CC2)cc1Nc1ncc2c(n1)N(C1CCCC1)CC(F)(F)C(=O)N2C` (stereo not drawn) [Compound 224, 4-((9-cyclopentyl-7,7-difluoro-5-methyl-6-oxo-6,7,8,9-tetrahydro-5H-pyrimido[4,5-b][1,4]diazepin-2-yl)amino)-N-(14-((2-(2,6-dioxopiperidin-3-yl)-1,3-dioxoisoindolin-4-yl)amino)-3,6,9,12-tetraoxatetradecyl)-5-methoxy-2-(4-methylpiperazin-1-yl)benzamide] it was “++ (++<0.6)”.
On the same count and under the same terms, with `COc1cc(C(=O)NCCOCCOCCOCCOCCOCCNc2cccc3c2C(=O)N(C2CCC(=O)NC2=O)C3=O)c(N2CCN(C)CC2)cc1Nc1ncc2c(n1)N(C1CCCC1)CC(F)(F)C(=O)N2C` (stereo not drawn) [Compound 225, 4-((9-cyclopentyl-7,7-difluoro-5-methyl-6-oxo-6,7,8,9-tetrahydro-5H-pyrimido[4,5-b][1,4]diazepin-2-yl)amino)-N-(17-((2-(2,6-dioxopiperidin-3-yl)-1,3-dioxoisoindolin-4-yl)amino)-3,6,9,12,15-pentaoxaheptadecyl)-5-methoxy-2-(4-methylpiperazin-1-yl)benzamide] the entry was “++ (++<0.6)”.
